# Source: patent US20200315171A1, “PSYLLID PHEROMONE COMPOSITIONS” (The Regents of the University of California, priority 2017, published 2020)
# “Also recorded” adds a separate entry of the source.
# Tests used:
# ACP male antennae = assay: Electroantennogram (EAG) responses of ACP male antennae to C1-C6 acids; design: species or system Diaphorina citri
# Method: (§1) Electrophysiology. Antennas were mounted, according to a published protocol^26, under a stereoscopic microscope (SZT, BEL Engineering, MB, Italy). Antennae were connected with glass microcapillaries pulled with a PC-10 puller (Narishige, Kanto, Japan). The glass capillaries housed 0.39 mm gold wires (Sigmund Cohn Corp, Mt. Vernon, N.Y.) and were filled with a saline solution (3.7 g NaCl, 0.175 g KCl, 0.17 g CaCl2 in 500 mL of distilled water). Electrodes were connected to a Universal Probe, gain 10× (Syntech, Buchenbach, Germany) and connected to a 2-Chanel IDAC Acquisition Controller (Syntech). The signal was processed with Syntech software (GcEad version 4.6). Two Pasteur pipettes were used one for a flow balance and the other as a stimulus. The stimulus was loaded on a filter paper strip (40×4-mm), which was inserted in the stimulus pipette after evaporation for 1 min. Each cartridge was used only once. The antennal preparation was set at the end of an effluent flow tube, which had two lateral holes (13 cm from the antennal preparations) to accommodate the tips of the Pasteur pipettes (stimulus and flow balance). Humidified continuous flow (0.1 L/min) was generated by a CS-55 Stimulus Controller (Syntech). Flow for stimulus and balance were set at 1 L/min. Stimulus duration was set a 1 s. There was a minimal interval of 1 min between stimuli.
# D. citri adults [1] = assay: Field tests with baited yellow sticky traps in a citrus grove; assay type: in vivo, Diaphorina citri; conditions: for Males caught: higher-dose field experiment, n=48 per trap
# Method: Field Experiment 1: Evaluation of lignoceryl acetate, lygnocerol, formic acid, acetic acid, and propionic acid. These experiments were performed in an organic grove of Valencia sweet orange [Citrus sinensis (L.) Osbeck] grafted on ‘Rangpur’ lime (Citrus limonia Osbeck) with natural infestation of D. citri. For this purpose, yellow stick cards (30 cm in length×10 cm in width) with a 2 cm in diameter central hole were used to assess the attractivity of the test compounds to D. citri adults. Compounds were assessed at doses ranging from 0.01 μg to 100 μg. Hexane was used as a control. Tested compounds were incorporated into slow-release devices made of ES fiber (Ethylene-Propylene Side by Side, Chiso Co. Ltd, Japan). The experiments were designed in Latin square using 16 traps spaced 25 m from each other (4 traps per treatment). They were repeated three times over time and the number of captured ACP adults was recorded each 7 days for 49 days.
# (§2) Statistical analyses. […] Each pair of a test and a control in indoor behavioral measurements using an Y-olfactometer or 4-way olfactometer, as well in field tests comparing only a single treatment and a control, was compared by using two-tailed, Wilcoxon matched-pairs signed rank test.
# ACP female antennae = assay: Electroantennogram (EAG) responses of ACP female antennae to acids; design: species or system Diaphorina citri; conditions: source dose 10^−1
# Method: as §1
# [2] = tested on: 7-day-old virgin D. citri males; assay: Y-olfactometer behavioral assay, virgin males as responders; assay type: in vivo, Diaphorina citri
# Method: (§3) Indoor behavioral assays. All behavioral assays were conducted in a climate-controlled room (see above). A glass tube in a Y-shape (central tube 15 cm in length and 3 cm in diameter split into two tubes in a 120° angle with the same dimensions used in the central tube) was placed vertically with the decision arms pointing towards the ceiling (light sources). All connections were made with 0.635-diameter polytetrafluoroethylene (PTFE) tubes (Sigma-Aldrich, Bellefonte, Pa., USA). Clean air was provided by an oil-free air compressor (Schulz MSV6, Schulz, Joinville, SC, Brazil) and humidified into milliQ water before the line was split into two separate lines, each one with an air flowmeter with a range from 0.1 to 1.0 L/min (Brooks Instrument, Hatfield, Pa. USA) to allow balanced flow of […]. […] Insects that crossed the central tube line located 5 cm from the bifurcation within the observation time of 5 min were recorded as responders. […]
# (§4) Statistical analyses. […] Field tests with multiple comparison (different doses) were analyzed by ANOVA. Capture data were first transformed into log (x+1) and them means were analyzed by Dunnett's test as well as Tukey's test (P<0.05) by comparing the mean of each column with the mean of the control or with the mean of every other group, respectively.
# [3] = tested on: 7-day-old virgin D. citri females; conditions: acetic acid 0.01 μL/μL hexane, 100 μL
# Text: (§5) An air-flow olfactometer, also known as “4-arm olfactometer” or “4-way olfactometer” was constructed^29 (30.0×30.0×2.5 cm in length, width and height, respectively) with acrylic. A constant, charcoal-filtered humidified airflow 0.1 L/min was connected to each odor source, and all airflows converged through individual PTFE tubes to the center of the acrylic arena. Yellow fields were made by adding a yellow laser jet printed-paper below the bottom of the arena with the following color spaces: lightness (84.8±0.04), chroma (98.7±0.40), and hue angle (95.7±0.02) using a colorimeter Minolta CR400 (Konica Minolta Co., Osaka, Japan).^34 Two of the four possible arms received volatiles from acetic acid 0.01 μL/μL hexane (100 μL), whereas the other two remaining received hexane. The psyllids (virgin 7-day-old males or females) were released on the center of the arena. An olfactometer test consisted of the release of a single D. citri and the observation (from 15:00 to 18:00). As a criterion for data collection from each insect, five minutes were allowed for response (first choice). In case of response, 10 minutes were allowed to observe the time spent in each of the four odor fields.
# (§6) Statistical analyses. All statistical analyses were done with Prism 7 (GrapPad, La Jolla, Calif.). Each pair of a test and a control in indoor behavioral measurements using an Y-olfactometer or 4-way olfactometer, as well in field tests comparing only a single treatment and a control, was compared by using two-tailed, Wilcoxon matched-pairs signed rank test. Field tests with multiple comparison (different doses) were analyzed by ANOVA. Capture data were first transformed into log (x+1) and them means were analyzed by Dunnett's test as well as Tukey's test (P<0.05) by comparing the mean of each column with the mean of the control or with the mean of every other group, respectively.
# [4] = tested on: 7-day-old virgin D. citri males; conditions: acetic acid 0.01 μL/μL hexane, 100 μL
# Text: as §5, §6
# [5] = tested on: 7-day-old virgin D. citri females; conditions: acetic acid 0.01 μL/μL hexane, 100 μL; remark: listed apart in the source
# Method: as §3, §4
# [6] = tested on: olfactory receptor neurons in ACP antennae; conditions: reported in reference 28; cited from earlier work
# D. citri adults [7] = assay: Field tests with transparent traps baited with aged lignoceryl acetate lures; assay type: in vivo, Diaphorina citri
# Method: Field Experiment 2: Evaluation of aged lignoceryl acetate lures. Lures were prepared and kept in greenhouses for 28 days prior to being fixed in yellow stick cards in the field. Thus, aged lures were tested in the field starting on day 28 until 70 days after preparation of the lures. The area, experimental design, number of traps, and data collection were the same as described above.
# Field Experiment 3: Evaluation of lignoceryl acetate lures using transparent traps. To avoid interference from the yellow visual cues from the stick cards, these experiments were performed with transparent acrylic traps (30 cm in length×10 cm in width) and covered with an adhesive glue film (Biostop Cola, Biocontrole, São Paulo, Brazil). The experimental design, number of traps, and data collection were the same as described above.
# as §2
# [8] = SPME analysis of volatiles from lures matured under field conditions; assay type: physicochemical; conditions: lures matured for 5 weeks under field conditions vs new lures
# Method: Injections were operated in splitless mode with an injector temperature of 250° C. The GC ovens were programmed from 40° C. for 1 min, increased to 300° C. at 10° C./min (held for 50 min). MS transfer line, manifold, and trap were set at 300° C., 50° C., and 217° C., respectively. Quantitative analyses were done on a Shimadzu GC-2010 gas chromatograph equipped with a flame ionization detector (Shimadzu Corp., Kyoto, Japan) and fitted with an HP5-MS capillary column (30 m×0.25 mm i.d.×[…]; Agilent Scientific, Santa Clara, Calif., USA). SPME analyses were done with a 50/30 divinylbenzene (DVB)/carboxen (CAR)/polydimethylsiloxane (PDMS) (Supelco, catalogue number 57328-U). Volatile compounds were collected from the headspace of the samples placed in a closed glass container with a rubber septum on the top. Both laboratories used the same oven temperature program, i.e., starting at 35° C. for 5 min, raising to 70° C. at a rate of 2.5° C./min, then increasing to 150° C. at 5° C./min, and subsequently raising to the final temperature of 250° C. at 20° C./min.
# [9] = yellow sticky traps baited with 0.1 μg
# [10] = yellow sticky traps baited with 1 μg
# [11] = yellow sticky traps baited with 10 μg
smiles,measurement,setting,value
"CCCCCC(=O)O [hexanoic acid, reference compound]",EAG response,ACP male antennae; source dose 10^−1,no response
"CCCCCCCCCCCCCCCCCCCCCCCCO [240H, lignocerol, reference compound]",Captures in treatment vs control traps,"D. citri adults [1]; doses from 0.1 to 100 μg, each week, Dunnett P=0.2770-0.9999, n=4 per dose per week",did not find significant differences
CC(=O)O [acetic acid],EAG response,ACP male antennae; source dose 10^−1,2.70±0.36 mV
same,EAG response,ACP male antennae; source dose 10^−2,1.73±0.37 mV
same,EAG response,ACP male antennae; very low dose 10^−3,0.44±0.21 mV
same,EAG response,ACP female antennae,3.22±0.94 mV
same,Male attraction to treatment side vs control side of Y-olfactometer,"[2]; acetic acid 0.01 μL/μL hexane, 100 μL",significantly more attracted
same,Female choice between treatment and control sides of 4-way olfactometer,[3],did not distinguish
same,Time spent by females on treatment vs control sides of 4-way olfactometer,[3],not significantly different
same,Time spent by males in treatment vs control fields of 4-way olfactometer,[4],spent significantly more time
same,Male preference for treatment fields vs control sides in 4-way olfactometer,[4]; first choice,highly significant
same,Female response to baited arm vs control side of Y-olfactometer,[5],did not differ significantly
same,"Captures vs control traps, preliminary field experiments",D. citri adults [1]; traps baited with 1 ug,captured significantly more ACP adults than control traps
same,Males caught,D. citri adults [1]; traps baited with 1 μg,2.48±0.25 males per trap per day
same,Males caught,D. citri adults [1]; traps baited with 10 μg,3.08±0.33 males per trap per day
same,Males caught,D. citri adults [1]; traps baited with 100 μg,4.23±0.35 males per trap per day
same,ACP adults captured,D. citri adults [1]; [9],7.42±0.35 D. citri per trap per week
same,ACP adults captured,D. citri adults [1]; [10],14.77±0.54 D. citri per trap per week
same,ACP adults captured,D. citri adults [1]; [11],9.52±0.50 D. citri per trap per week
same,Effect on responses from olfactory receptor neurons,[6],inhibit responses
CCCCC(=O)O [valeric acid],EAG response,ACP male antennae; source dose 10^−1,0.24±0.03 mV
O=CO [formic acid],EAG response,ACP male antennae; source dose 10^−1,1.60±0.63 mV
same,EAG response,ACP male antennae; source dose 10^−2,0.42±0.37 mV
same,EAG response,ACP female antennae,1.86±0.48 mV
same,ACP adults captured,D. citri adults [1]; [9],2.59±0.30 D. citri per trap per week
same,ACP adults captured,D. citri adults [1]; [10],9.17±0.36 D. citri per trap per week
same,ACP adults captured,D. citri adults [1]; [11],7.14±0.34 D. citri per trap per week
CCC(=O)O [propionic acid],EAG response,ACP male antennae; source dose 10^−1,2.22±0.29 mV
same,EAG response,ACP male antennae; source dose 10^−2,1.13±0.47 mV
same,EAG response,ACP female antennae,2.90±1.09 mV
same,ACP adults captured,D. citri adults [1]; yellow sticky traps baited with 0.01 μg,9.52±0.52 D. citri per trap per week
same,ACP adults captured,D. citri adults [1]; [9],18.27±0.52 D. citri per trap per week
same,ACP adults captured,D. citri adults [1]; [10],13.79±0.53 D. citri per trap per week
same,Effect on responses from olfactory receptor neurons,[6],inhibit responses
"CCCCCCCCCCCCCCCCCCCCCCCCOC(C)=O [24Ac, tetracosyl acetate]",Preference of virgin males for treatment vs control in olfactometer,"[2]; 0.1 to 100 μg as odor source, P=0.2031-0.9999",did not show any significant preference
same,Lure activity after 42 days,"D. citri adults [1]; 1 μg per trap, after 42 days",lost activity
same,Captures in baited traps vs control traps,"D. citri adults [1]; 1 μg per trap, at 35 and 42 days",significantly more males were captured
same,Captures in baited traps vs control traps,"D. citri adults [1]; 1, 10 and 100 μg per trap, first weeks of the experiments",not significantly different
same,Captures in baited traps vs control traps,"D. citri adults [1]; 1.0, 10 and 100 μg, 35 and 42 days after onset",a significant difference was observed; also recorded: significantly higher than captures in control traps
same,Lure activity,"D. citri adults [7]; aged lures, after 3 weeks in field",lost all activity
same,Males collected vs control traps,"D. citri adults [7]; lures aged for 35 days, first week in field",collected significantly more males than control traps
same,Degradation of lure: volatiles detected by SPME,[8],small amounts of acetic acid in aged but not in new lures
CCCC(=O)O [butyric acid],EAG response,ACP male antennae; source dose 10^−1,0.52±0.36 mV
